# Reference: patent US6297241A, “Carbamate derivatives of diaryl 1,3,4-oxadiazolone” (Bristol-Myers Squibb Company, priority 2000, dated 2001)
# Assays:
# [1] = system: cloned mammalian (mSlo or hSlo) BK channels; experiment: Increase of cloned BK-mediated outward current in Xenopus oocytes, two-electrode voltage clamp; assay type: cell-based; conditions: 1 μM; at least 5 oocytes; mSlo or hSlo expressed in Xenopus oocytes
# cortical infarct volume = experiment: Focal stroke model: permanent left MCA and CCA occlusion, temporary right CCA occlusion; assay type: in vivo; conditions: Wistar rat; 10 μg/kg i.v. single bolus two hours after MCA occlusion; measured 24 hours after MCAO
# Method: To determine the ability of the compounds of the present invention to reduce cell loss resulting from neuronal ischemia, a standard focal cerebral ischemia is induced by permanent occlusion of the left middle cerebral artery (MCA) and common carotid artery (CCA) with one hour occlusion of the right CCA in the Wistar rat. The surgeries are performed using the sub-temporal approach of A. Tamura, et al., J. Cereb. Blood Flow Metab., 1, pp. 53-60, (1981) and its modifications [K. Osborne, et al., J. Neurol Neurosurg. Psychiatry, 50, pp. 402-410 (1987) and S. Menzies, et al., Neurosurgery, 31, pp.100-107, (1992).]
# The compound of Example 1 was evaluated in the focal stroke model involving permanent occlusion of the left MCA (MCAO) and CCA (CCAO) and temporary occlusion of the right CCA in the Wistar rat. This procedure results in a reliably large neocortical infarct volume that is measured by means of vital dye exclusion in serial slices through the brain 24 hours after MCAO. In the present test, compounds were administered using an i.v. or i.p. route of administration two hours after occlusion.
# [2] = system: non-BK native currents in the oocytes; experiment: Effect on non-BK native currents (current remaining with IBTX) in oocytes; conditions: at the tested concentration; IBTX 50 nM
# [3] = Rapid screen of prodrug hydrolysis and drug release in plasma (HPLC); assay type: in vitro ADME; conditions: fresh rat plasma, 37° C., 10 μg/mL, stock in PEG-400, analysis 5 minutes after incubation
# Method: A rapid screen to determine the ability of prodrugs to hydrolyze and release the drug (compound of Example 1) is conducted as follows. A 1 mg/mL stock solution of the prodrug is prepared in distilled water or acetonitrile or PEG-400. Plasma from freshly collected rat or human blood is used in this assay. To 1 mL of plasma at 37° C. was added 10 μL of stock solution of prodrug and mixed gently. Immediately after the mixing, 100 μL of plasma was removed and quenched with 300 μL of acetonitrile (Zero time sample). Samples were also obtained at 30 minutes and quenched immediately. The quenched samples were centrifuged to obtain a clear supernatant for analysis. The stock solution, T=0 and T=30 samples were analyzed by a HPLC assay that separates the drug from the prodrug. Based on the relative peak areas of prodrug and drug in these samples, different prodrugs are characterized as fast, moderate and slow release agents. For example, in this model, the compound of Example 2 was dissolved in PEG-400 at a concentration of 1 mg/mL and incubated at 10 μg/mL in fresh rat plasma at 37° C.
Structure (SMILES),BK current as % of control of IBTX-sensitive current [1] [%],Reduction of cortical infarct volume vs vehicle-treated (water) control (cortical infarct volume),Effect on non-BK native currents in the oocytes [2],Conversion of prodrug to the drug (compound of Example 1) in plasma [3]
O=c1oc(-c2ccc(C(F)(F)F)cc2)nn1Cc1cc(Cl)ccc1O [Example 1],126,about 18%,did not effect non-BK native currents,–
"O=C(O)CC(NC(=O)Oc1ccc(Cl)cc1Cn1nc(-c2ccc(C(F)(F)F)cc2)oc1=O)C(=O)O (stereo not shown) [Example 2, N-[[4-Chloro-2-[[5-[4-(trifluoromethyl)phenyl]-2. 3-dihydro-2-oxo-1,3,4-oxadiazol-3-yl]methyl]phenoxy]carbonyl]aspartic acid]",–,–,–,conversion of the compound of Example 2 to the compound of Example 1
